As usually defined, the IC50 is the concentration that inhibits the measured activity by half. Low values mean greater potency in that assay, high ones weaker potency in that assay.

The target of this assay is T1, Interstitial collagenase (Homo sapiens, UniProt P03956).
T1 sequence (P03956 whole entry): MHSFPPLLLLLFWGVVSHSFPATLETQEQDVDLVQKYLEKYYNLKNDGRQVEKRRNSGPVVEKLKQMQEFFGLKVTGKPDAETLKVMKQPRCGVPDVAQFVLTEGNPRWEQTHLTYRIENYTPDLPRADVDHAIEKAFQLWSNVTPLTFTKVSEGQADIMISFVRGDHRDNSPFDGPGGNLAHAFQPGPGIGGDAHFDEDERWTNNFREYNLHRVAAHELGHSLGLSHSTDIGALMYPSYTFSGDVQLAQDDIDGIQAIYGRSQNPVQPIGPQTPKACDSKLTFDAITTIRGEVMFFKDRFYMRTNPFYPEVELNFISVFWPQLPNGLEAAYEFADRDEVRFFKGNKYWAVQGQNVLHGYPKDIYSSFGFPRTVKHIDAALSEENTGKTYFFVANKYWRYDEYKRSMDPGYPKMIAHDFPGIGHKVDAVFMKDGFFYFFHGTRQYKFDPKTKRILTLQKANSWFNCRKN
The experiment in a line: Inhibitory activity against Matrix Metallo Proteinase-1 (MMP-1).
Molecule `CNC(=O)[C@H](Cc1ccccc1)NC(=O)[C@H](CC(C)C)N[C@H](CCN1C(=O)c2cc3ccccc3cc2C1=O)C(=O)O` yielded an IC50 of 34 nM. `CNC(=O)[C@H](Cc1ccc(OC)cc1)NC(=O)[C@H](CC(C)C)C[C@@H](CCN1C(=O)c2cc3ccccc3cc2C1=O)C(=O)O`: the IC50 worked out at 23 nM. The figure for `CNC(=O)[C@H](Cc1ccc(OC)cc1)NC(=O)[C@H](CC(C)C)N[C@H](CCN1C(=O)c2cc3ccccc3cc2C1=O)C(=O)O` is 23 nM. As for `CCCOc1ccc2c(c1)C(=O)N(CCC(CC1(C(=O)N[C@@H](Cc3ccc(OC)cc3)C(=O)NC)CCCCC1)C(=O)O)C2=O` (mixture of isomers), inhibition was half-maximal at 140 nM (IC50). The figure for `CNC(=O)[C@H](Cc1ccc(OC)cc1)NC(=O)C1(CC(CCN2C(=O)c3ccc(OC)cc3C2=O)C(=O)O)CCCCC1` (mixture of isomers) is 570 nM; for `CNC(=O)[C@H](Cc1ccc(OC)cc1)NC(=O)C1(CC(CCN2C(=O)c3ccccc3C2=O)C(=O)O)CCCCC1` (mixture of isomers) it is 3200 nM; for `CCC(CC1(C(=O)N[C@@H](Cc2ccc(OC)cc2)C(=O)NC)CCCCC1)C(=O)O` (mixture of isomers) it is more than 30000 nM. The figure for `O=C(O)C(CCN1C(=O)c2cc3ccccc3cc2C1=O)CC1(C(=O)NCCN2CCOCC2)CCCCC1` (racemic) is 12000 nM; for `O=C(O)C(CCN1C(=O)c2cc3ccccc3cc2C1=O)CC1(C(=O)NCc2ccccc2)CCCCC1` (racemic) it is 3000 nM; for `CNC(=O)[C@H](Cc1ccc(OC)cc1)NC(=O)C1(NC(CCN2C(=O)c3cc4ccccc4cc3C2=O)C(=O)O)CCCCC1` (stereo in doubt; form 1) it is 970 nM.

Take `CNC(=O)[C@H](Cc1ccc(OC)cc1)NC(=O)C1(CC(CCN2C(=O)c3cc4ccccc4cc3C2=O)C(=O)O)CCCC1` (stereo in doubt; form 1): the IC50 amounted to 940 nM.

For the molecule `CNC(=O)[C@H](Cc1ccc(OC)cc1)NC(=O)C1(CC(CCN2C(=O)c3cc4ccccc4cc3C2=O)C(=O)O)CCCCC1` (stereo in doubt; form 1), inhibition was half-maximal at 38 nM (IC50). `CNC(=O)[C@H](Cc1ccc(OC)cc1)NC(=O)C1(NC(CCN2C(=O)c3cc4ccccc4cc3C2=O)C(=O)O)CCCCC1` (stereo in doubt; form 2) returned an IC50 of 90 nM. The figure for `CNC(=O)[C@H](Cc1ccc(OC)cc1)NC(=O)C1(CC(CCN2C(=O)c3cc4ccccc4cc3C2=O)C(=O)O)CCCC1` (stereo in doubt; form 2) is 260 nM.

Molecule `CNC(=O)[C@H](Cc1ccc(OC)cc1)NC(=O)C1(CC(CCN2C(=O)c3cc4ccccc4cc3C2=O)C(=O)O)CCCCC1` (stereo in doubt; form 2) returned an IC50 of 140 nM.

The values are drawn from ChEMBL document CHEMBL1151066, “Inhibitors of MMP-1: an examination of P1 C gem-disubstitution in the N-carboxyalkylamine and glutaramide carboxylate series” (Bioorg Med Chem Lett, 1996).
